Series [1] relates to Common Cutworm (Spodoptera litura). The experiment in a line: Comparative Test Example 1: insecticidal effect on common cutworm, treated synthetic diet. It is filed as in vivo. The settings on record: 192 h, synthetic diet treated with 0.5 ml, third-instar larvae, eight days after inoculation. Here is the method: Insecticidal Effect on Common Cutworm (Spodoptera litura)
A synthetic diet packed in a plastic Petri dish was treated with 0.5 ml of a liquid chemical prepared by diluting a preparation containing compound 1-51 as an active ingredient to adjust the prescribed concentration, by adding the liquid chemical dropwise to the synthetic diet. The synthetic diet was inoculated with third-instar larvae of common cutworm, after which the dish was closed and then allowed to stand in a room thermostatted at 25° C. Eight days after the inoculation, the dead and alive were counted, and the mortality was calculated according to the following equation. The test was carried out with triplicate groups of 10 insects. [formula]
The compounds described in JP-A-2001-131141 were used as comparative compounds as follows: […]

For series [2] the test system is unchanged. The experiment in a line: Comparative Example 2: insecticidal effect on common cutworm by soil treatment for cabbage. Type of series: in vivo. Also on record: concentration or dose not given beside the values. As to conditions: granules in planting holes; leaf cut eleven days after transplanting; first-instar larvae; three days after inoculation. How it is done: Insecticidal Effect on Common Cutworm (Spodoptera litura) by Soil Treatment for Cabbage
At the time of trans-planting cabbage plants (cultivar: YR Seitoku), planting holes were treated with granules prepared from compound 1-51 according to Formulation Example. Eleven days after the transplanting, a leaf was cut off from the cabbage plant, placed in a plastic Petri dish, and then inoculated with 20 first-instar larvae of common cutworm. Thereafter, the dish was closed and then allowed to stand in a room thermostatted at 25° C. Three days after the inoculation, the dead and alive were counted and the mortality was calculated in the same manner as in Comparative Test Example 1.

Take `CC(C)(CS(C)(=O)=O)NC(=O)c1c(I)cccc1C(=O)Nc1ccc(OC(F)(F)F)cc1Cl` [Compound B, N^1-[2-chloro-4-(trifluoromethoxy)phenyl]-3-iodo-N^2-(1,1-dimethyl-2-methylsulfonylethyl)phthalamide]: in series [1] (5 ppm), the mortality at 5 ppm amounted to 0%. In series [1] (50 ppm), this molecule yielded a mortality at 50 ppm of 100%. Moreover, in series [1] (500 ppm), the mortality at 500 ppm is 100%. In series [2], the “Mortality, Highest leaf” value amounted to 0%; the “Mortality, Second highest leaf” value came out at 50%; the “Mortality, Third highest leaf” value was found to be 100%.
